Laboratory results reported in ChEMBL document CHEMBL1141848, “Prenylagaramides A and B, new cyclic peptides from two strains of oscillatoria agardhii” (J Nat Prod, 1999).
Calls of active or inactive are those of the source. Residues, ends and D or L forms follow the SMILES beside them. *: point of attachment. Prenyl = CC(C)=CC*

How the values were obtained:
[1] = target: Cytosol aminopeptidase (Homo sapiens) (UniProt P28838); experiment: Inhibition of leucine amino peptidase
[2] = Inhibition of chymotrypsin
[3] = target: Prothrombin (Homo sapiens) (UniProt P00734); experiment: Inhibition of thrombin
[4] = Inhibition of trypsin
[5] = target: Plasminogen (Homo sapiens) (UniProt P00747); experiment: Inhibition of plasmin
[6] = target: T1, Papain (Carica papaya) (UniProt P00784); experiment: Inhibition of papaya papain
T1 sequence (whole entry): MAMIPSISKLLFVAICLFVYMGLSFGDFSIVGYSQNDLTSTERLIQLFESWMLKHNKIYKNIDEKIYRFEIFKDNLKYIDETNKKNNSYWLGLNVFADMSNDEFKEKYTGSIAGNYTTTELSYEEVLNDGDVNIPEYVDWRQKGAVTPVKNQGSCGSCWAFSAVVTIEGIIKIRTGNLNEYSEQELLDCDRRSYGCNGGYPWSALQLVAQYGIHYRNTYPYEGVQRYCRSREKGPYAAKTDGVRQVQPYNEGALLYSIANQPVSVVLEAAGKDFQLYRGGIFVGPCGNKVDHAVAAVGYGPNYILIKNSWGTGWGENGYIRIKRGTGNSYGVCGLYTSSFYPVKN

[7] = system: P388; experiment: Cytotoxicity against mouse P388 cells; type: functional, cell-based
[8] = Inhibition of elastase

Measured: Activity

Cytosol aminopeptidase (Homo sapiens), sequence (P28838 whole entry): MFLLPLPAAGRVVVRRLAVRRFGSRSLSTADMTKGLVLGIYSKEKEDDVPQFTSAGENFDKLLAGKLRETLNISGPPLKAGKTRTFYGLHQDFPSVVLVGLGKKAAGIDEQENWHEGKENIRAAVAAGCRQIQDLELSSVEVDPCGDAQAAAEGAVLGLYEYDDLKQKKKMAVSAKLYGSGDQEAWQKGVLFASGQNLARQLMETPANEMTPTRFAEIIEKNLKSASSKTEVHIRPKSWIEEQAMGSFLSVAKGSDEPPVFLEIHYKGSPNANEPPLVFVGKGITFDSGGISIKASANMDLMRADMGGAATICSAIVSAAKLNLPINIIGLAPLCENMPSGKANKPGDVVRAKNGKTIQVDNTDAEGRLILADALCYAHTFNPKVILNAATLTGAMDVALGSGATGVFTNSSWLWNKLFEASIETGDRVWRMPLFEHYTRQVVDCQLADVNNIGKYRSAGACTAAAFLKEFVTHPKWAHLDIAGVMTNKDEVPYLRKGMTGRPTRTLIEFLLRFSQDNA
Plasminogen (Homo sapiens), sequence (P00747 97-580 limits assumed): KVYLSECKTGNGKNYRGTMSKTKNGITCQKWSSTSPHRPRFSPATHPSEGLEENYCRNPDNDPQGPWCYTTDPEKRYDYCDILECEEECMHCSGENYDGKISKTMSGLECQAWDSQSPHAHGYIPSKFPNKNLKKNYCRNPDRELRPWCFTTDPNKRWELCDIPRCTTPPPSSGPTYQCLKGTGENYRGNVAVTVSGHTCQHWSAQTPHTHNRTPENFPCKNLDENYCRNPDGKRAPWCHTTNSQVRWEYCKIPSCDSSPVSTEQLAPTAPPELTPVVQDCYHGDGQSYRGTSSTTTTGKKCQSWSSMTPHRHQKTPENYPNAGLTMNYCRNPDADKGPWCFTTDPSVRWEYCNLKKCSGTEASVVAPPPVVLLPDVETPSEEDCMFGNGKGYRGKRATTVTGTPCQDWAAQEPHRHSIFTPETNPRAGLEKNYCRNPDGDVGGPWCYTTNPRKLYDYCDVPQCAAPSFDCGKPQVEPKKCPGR
Plasminogen (Homo sapiens), sequence (P00747 581-810 limits assumed): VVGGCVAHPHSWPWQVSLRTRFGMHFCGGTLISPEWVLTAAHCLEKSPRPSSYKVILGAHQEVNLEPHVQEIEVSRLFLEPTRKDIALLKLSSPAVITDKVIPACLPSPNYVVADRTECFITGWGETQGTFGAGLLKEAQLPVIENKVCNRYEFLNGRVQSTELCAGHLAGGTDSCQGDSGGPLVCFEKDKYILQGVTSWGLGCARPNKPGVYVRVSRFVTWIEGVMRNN

CC[C@H](C)[C@@H]1NC(=O)[C@@H]2CCCN2C(=O)[C@H](Cc2ccc(O)cc2)NC(=O)[C@H](CC(C)C)NC(=O)[C@H](Cc2ccc(OCC=C(C)C)cc2)NC(=O)[C@@H]2CCCN2C(=O)[C@H](CC(N)=O)NC1=O (cyclo(INPY(Prenyl)LYP))
inactive: all assays above

CC(C)=CCOc1ccc(C[C@@H]2NC(=O)[C@@H]3CCCN3C(=O)[C@H](CC(N)=O)NC(=O)[C@H](Cc3ccccc3)NC(=O)[C@H](Cc3ccccc3)NC(=O)[C@H](CCC(=O)O)NC(=O)CNC(=O)[C@H]([C@@H](C)O)NC(=O)CNC2=O)cc1 (cyclo(EFFNPY(Prenyl)GTG))
inactive: all assays above
